Reference: ChEMBL document CHEMBL1134225, “Potent synthetic inhibitors of tyrosyl tRNA synthetase derived from C-pyranosyl analogues of SB-219383” (Bioorg Med Chem Lett, 2001)

How the values were obtained:
[1] = Inhibitory activity (3 uM) against Staphylococcus aureus tyrosyl tRNA synthetase (YRS) using aminoacylation assay
[2] = Inhibitory activity against Staphylococcus aureus tyrosyl tRNA synthetase (YRS) using aminoacylation assay
[3] = Inhibitory activity against Staphylococcus aureus tyrosyl tRNA synthetase (YRS) using aminoacylation assay; NI = No inhibition

For `N[C@@H](Cc1ccc(O)cc1)C(=O)N[C@H](C(=O)O)[C@@H]1OC[C@H](O)[C@@H](O)[C@H]1O`, the inhibition [1] was 71%.
`N[C@@H](Cc1ccc(O)cc1)C(=O)N[C@H](C(=O)O)[C@@H]1OC[C@H](O)[C@H](O)[C@H]1O` gave an IC50 [2] of 100 nM.
With `N[C@@H](Cc1ccc(O)cc1)C(=O)NC(C(=O)O)[C@@H]1O[C@H](CO)[C@@H](O)[C@H](O)[C@H]1O` (stereo partly drawn) the IC50 [3] was “Not Active”.
